Our source for the GI50 and TGI values is PubChem BioAssay (NCI).

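Tested at 5 concentrations; 48 h exposure; 96-well plates; endpoints linearly interpolated, else capped at highest concentration. GI50 is the concentration that inhibits growth by half. The concentration for full growth arrest is given as TGI.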

What all share (test): NCI-60 cell line screen, 48 h
The test system of experiment [1] is 786-0 renal.
The subject of experiment [2] is A549 NSCLC.
Experiment [3] has as its system HS 578T breast.
The test system of experiment [4] is HCT-15 colon.
In experiment [5] the test system is COLO 205 colon.
The subject of experiment [6] is SK-MEL-2 melanoma.
The subject of experiment [7] is OVCAR-8 ovarian.
In experiment [8] the test system is HOP-62 NSCLC.
Experiment [9] relates to T-47D breast.
Experiment [10] has as its system U251 CNS.

With `COc1cccc(CCC2CCCN(c3cc(C)nc(N)n3)C2)c1` (stereo not given), the GI50 in [1] was 0.526 µM; in experiment [2], 0.722 µM; in [3] it was 0.418 µM; in [4], 0.418 µM; in [5] it was 0.313 µM; in [6], 0.435 µM. Moreover, the GI50 in experiment [7] was 0.531 µM; in experiment [8], 0.434 µM; in experiment [9] it was 0.238 µM; in experiment [10], 0.413 µM. For the same compound, the TGI in experiment [1] was 11.9 µM; in experiment [2] it was 15.2 µM; in experiment [3] it was 16.7 µM; in experiment [4], 12.3 µM; in experiment [5], 1.06 µM; in experiment [6] it was 8.23 µM. In addition, the TGI in [7] turned out to be 8.93 µM; in experiment [8], 6.43 µM; in experiment [9] it was 8.26 µM; in experiment [10] it was 11.4 µM.

With `O=C(O)/C=C/C(=O)N1Cc2cc3ccccc3nc2C1`, the TGI in experiment [1], in [2], in experiment [3], in [4], in [5] and in [6] was > 100 µM each time. For the same compound, the TGI in [7], in experiment [8], in experiment [9] and in [10] was > 100 µM throughout.

With `CC[C@H](NC(=O)[C@H]1CCCCN1C)C(=O)N(C)[C@H](C[C@@H](OC(C)=O)c1nc(C(=O)N[C@@H](Cc2ccccc2)C[C@H](C)C(=O)O)cs1)C(C)C`, the GI50 in experiment [1] is 0.00868 µM; in experiment [2], 0.0109 µM; in experiment [3], 0.00643 µM; in experiment [4] it was 0.00933 µM; in experiment [5], 0.00396 µM; in experiment [6], 0.00145 µM. Besides, the GI50 in experiment [7] is 0.0166 µM; in [8] it was 0.00673 µM; in experiment [9], 0.0058 µM; in experiment [10] it was 0.0047 µM. Moreover, the TGI was > 14.3 µM in experiment [1]; > 14.3 µM in experiment [2]; > 14.3 µM in experiment [3]; > 14.3 µM in experiment [4]; 0.0499 µM in experiment [5]; > 14.3 µM in experiment [6]. The TGI in [7], in experiment [8], in experiment [9] and in experiment [10] was > 14.3 µM each time.

As for `Cc1ccc(Cl)cc1Nc1nc(C(F)(F)F)ccc1C(=O)N/N=C/c1cccnc1`, the GI50 in experiment [1] is 2.11 µM; in [2], 3.32 µM; in [3] it was 4.05 µM; in experiment [4] it was 0.693 µM; in [5], 4.86 µM; in [6], 3.74 µM. In addition, the GI50 in experiment [7] is 3.05 µM; in experiment [8], 4.28 µM; in [9] it was 3.16 µM; in [10], 2.14 µM. The TGI was 11.4 µM in experiment [1]; 12.4 µM in experiment [2]; 18.5 µM in experiment [3]; 13.7 µM in [4]; 17.7 µM in [5]; 15.3 µM in [6]. The TGI turned out to be 15.1 µM in experiment [7], 18.5 µM in experiment [8], 20.8 µM in [9] and 11.7 µM in experiment [10].

Consider `Cc1cc(Cl)cc2c(N=Nc3ccc(S(N)(=O)=O)cc3)c(O)[nH]c12`, for which the GI50 in experiment [1], in experiment [2], in experiment [3], in [4], in [5] and in [6] was > 25 µM throughout. Moreover, the GI50 in experiment [7], in experiment [8], in experiment [9] and in [10] was > 25 µM in each case. For the same compound, the TGI in experiment [1], in experiment [2], in experiment [3], in [4], in experiment [5] and in [6] was > 25 µM throughout. Also, the TGI in [7], in experiment [8], in experiment [9] and in experiment [10] was > 25 µM in each case.

Turning to `CCC(CC)c1nc(Nc2ccc(C(=O)OC)cc2)c2ccccc2n1`, the GI50 in experiment [1] was 10.9 µM; in experiment [2], 10.2 µM; in [3] it was 10.9 µM; in [4], 11 µM; in experiment [5], 8.2 µM; in experiment [6], 9.39 µM. In addition, the GI50 was 12.9 µM in [7], 10.4 µM in [8], 7.88 µM in experiment [9] and 8.5 µM in [10]. For the same compound, the TGI in experiment [1] is 26.5 µM; in [2], 27.2 µM; in experiment [3], 26.5 µM; in experiment [4], > 33.1 µM; in [5], 15 µM; in experiment [6] it was 20 µM. Also, the TGI in [7] is > 31.4 µM; in experiment [8] it was 21.6 µM; in [9], 17.5 µM; in experiment [10], 19 µM.

Consider `CSC1=Nc2c(c(C)c(-c3ccccc3)n2CCCN2CCCCC2)C2=NC(=O)C[C@H](C)N12`, for which the GI50 in experiment [1] was 4.48 µM; in experiment [2], 3.57 µM; in experiment [3] it was 2.04 µM; in experiment [4], 8.41 µM; in experiment [5], 1.51 µM; in experiment [6] it was 2.14 µM. The GI50 in experiment [7] is 4.01 µM; in experiment [8], 3.11 µM; in experiment [9] it was 2.28 µM; in [10], 2.71 µM. Further, the TGI is 36.5 µM in [1]; > 32.6 µM in experiment [2]; 10.4 µM in experiment [3]; > 53.2 µM in experiment [4]; 2.95 µM in [5]; 5.26 µM in experiment [6]. The TGI in experiment [7] was > 55.7 µM; in experiment [8], 15.8 µM; in [9] it was 8.53 µM; in experiment [10], 17.7 µM.
